Patent publication US12274710B2, “Compound for regulating body weight imbalance, composition thereof and application thereof” (GUANGZHOU CENTURY CLINICAL RESEARCH CO., LTD, priority 2019, dated 2025)
Where two headings read alike, the source gives them in different places.

Legend:
[1] = tested on: rats in obese model; test: Effect on BMI of rats in obese model (formula feed); assay type: in vivo, SD rats; settings: for BMI / BMI of animals compared with the model group (in words): 4 weeks; for BMI: model group 7.73 ± 0.27
Source text: Except the blank group and the model group, each group had three subgroups: low dose, middle dose, and high dose. There were 6 animals in each subgroup.
The animals in the blank group were fed with a common feed every day. The animals in each group except the blank group were fed with a formula feed every day. The formula feed contained 5% of cholesterol, 6% of sucrose, 20% of egg yolk, 6% of peanut butter, 12% of whole milk powder, 6% of sesame oil (the percentage was by mass) and other ingredients of the common feed.
Each test drug was mixed with 5% methylcellulose solution; the animals in each group except the blank group and the model group were administered intragastrically respectively with a low dose of 100 mg/kg, a middle dose of 400 mg/kg and a high dose of 1,600 mg/kg; the animals in the blank group and the model group were not administered with the test drug and they were administered intragastrically with the same amount of 5% methylcellulose solution respectively. The intragastric administration was conducted once a day continuously for 4 weeks.
During the test process, the animals in each group were able to eat normally without anorexia. The stool characteristics were normal and no obvious diarrhea occurred.
After the last drug administration, the animals in each group were fasted for 12 h, during which water was provided, and then the animals were weighed.
Body length (distance from the nose to the anus) was measured after the animals were anesthetized with sodium pentobarbital and body mass index (BMI) (BMI=weight (kg)÷(height (m))^2) was calculated.
Statistical analysis was conducted by using the data in each group and the main results were screened and shown in Table 3 (Note: some test drugs in the table only list the middle-dose subgroups).

[2] = for Rate of weight change: after treatment vs before, 4 weeks
Source text: (§1) The dosage was based on a standard dosage of 3 g per day and should be increased or decreased according to individual conditions of the patients.
Weight changes of patients before and after treatment were also investigated: Rate of weight change=(weight after treatment−weight before treatment)÷weight before treatment×100%.

[3] = tested on: persons suffering from weight imbalance
[4] = tested on: patients diagnosed with gastric ulcer or duodenal ulcer; settings: 4 weeks
Source text: (§2) Efficacy and safety of the compound of the present disclosure in treating ulcers were studied in patients suffering from gastric ulcer or duodenal ulcer.
as §1
The number of ulcer foci and the area of ulcer foci (mm^2) of each patient were checked before and after the treatment, and the efficacy after treatment was judged according to the following criteria:
Completely healed: after the treatment, the ulcers and surrounding inflammation all disappeared after an endoscopic examination;
Basically healed: after the treatment, the ulcers disappeared in an endoscopic examination, but there was still inflammation; and partially healed: after the treatment, the area of the ulcers was reduced by 50% or more in an endoscopic examination; and
Unhealed: after the treatment, the area of the ulcers was reduced by less than 50% in an endoscopic examination.
The healing rate was used as an indicator of efficacy. Healing rate=(number of completely healed patients+number of basically healed patients)÷total number of patients in this group×100%.

[5] = tested on: patients diagnosed with gastric ulcer or duodenal ulcer; test: Routine examination indicators and digestive function before and after drug treatment (safety); assay type: in vivo, human; settings: after treatment, 4 weeks
Source text: as §2, §1
The number of red blood cells, the number of white blood cells, ALT, AST, serum creatinine, urine protein and other laboratory test items were checked before and after treatment. Routine clinical diagnostic criterias were used to determine whether the test items were normal and the normal rate was calculated. Normal rate of test indicators=number of patients with normal test indicators÷total number of patients in this group×100%
Effects of the drug on normal digestive function of the patients were also investigated before and after treatment by determining the rate of loose stool and the rate of constipation: Rate of loose stool=number of patients with loose stool÷total number of patients in this group×100%; and Rate of constipation=number of patients with constipation÷total number of patients in this group×100%.

[6] = middle dose 400 mg/kg intragastrically once a day

sucralfate [reference compound]
BMI [1, 6]: 7.87 ± 0.34 kg/m^2
BMI of animals compared with the model group (in words) ([1]; obese model rats): no significant difference

dosmalfate [compound 3]
Rate of weight change ([2]; Group 0.5 g): −4.2%
Rate of weight change ([2]; Group 1 g): −5.3%
Rate of weight change ([2]; Group 3 g): −7.0%
Rate of weight change ([2]; Group 9 g): −7.1%
Rate of weight change ([2]; Group 18 g): −3.8%
Effect on weight of ulcer patients (in words) ([2]; each dosage group, after 4 weeks of administration): weight loss to varing degrees
Uric acid level after administration ([3]; A person, 680 μmol/L before, 3 g three times a day, two months, no uric acid-lowering drug): 600 µmol/L
BMI index after administration ([3]; A person, BMI 29 before, 1.5 g three times a day, three months): 25.7
BMI index after administration ([3]; A person, BMI 32 before, 3 g three times a day, two months): 28.2
BMI index after administration ([3]; Person, BMI 25 before, 1 g twice a day, two months): 22
Body weight after administration ([3]; Person, obesity and hyperuricemia, 85 kg before, 3 g three times a day, two months): 75 kg
Body weight after administration ([3]; Person, polycystic ovary syndrome, 62 kg before, 1.5 g three times a day, three months): 55 kg
Healing rate of ulcers ([4]; Group 0.5 g/day, 10 patients): 30.0%
Healing rate of ulcers ([4]; Group 1 g/day, 18 patients): 55.6%
Healing rate of ulcers ([4]; Group 3 g/day, 37 patients): 62.2%
Healing rate of ulcers ([4]; Group 9 g/day, 10 patients): 80.0%
Healing rate of ulcers ([4]; Group 18 g/day, 5 patients): 80.0%
BMI ([1]; high dose 1,600 mg/kg intragastrically once a day): 5.85 ± 0.23 kg/m^2
BMI ([1]; low dose 100 mg/kg intragastrically once a day): 6.72 ± 0.32 kg/m^2
BMI [1, 6]: 6.06 ± 0.29 kg/m^2
BMI of animals compared with the model group (in words) ([1]; obese model rats): significantly reduced
Relative effectiveness on BMI at the same dose (in words) ([1]; obese model rats, same dose): more effective than compound 1 and compound 2
Normal rate of ALT ([5]; Group 0.5 g): 90.0%
Normal rate of AST ([5]; Group 0.5 g): 100.0%
Normal rate of red blood cells ([5]; Group 0.5 g): 100.0%
Normal rate of serum creatinine ([5]; Group 0.5 g): 100.0%
Normal rate of urine protein ([5]; Group 0.5 g): 100.0%
Normal rate of white blood cells ([5]; Group 0.5 g): 100.0%
Rate of constipation ([5]; Group 0.5 g): 0.0%
Rate of loose stool ([5]; Group 0.5 g): 0.0%
Normal rate of ALT ([5]; Group 1 g): 94.4%
Normal rate of AST ([5]; Group 1 g): 100.0%
Normal rate of red blood cells ([5]; Group 1 g): 94.4%
Normal rate of serum creatinine ([5]; Group 1 g): 100.0%
Normal rate of urine protein ([5]; Group 1 g): 94.4%
Normal rate of white blood cells ([5]; Group 1 g): 100.0%
Rate of constipation ([5]; Group 1 g): 0.0%
Rate of loose stool ([5]; Group 1 g): 0.0%
Normal rate of ALT ([5]; Group 3 g): 91.9%
Normal rate of AST ([5]; Group 3 g): 94.6%
Normal rate of red blood cells ([5]; Group 3 g): 94.6%
Normal rate of serum creatinine ([5]; Group 3 g): 94.6%
Normal rate of urine protein ([5]; Group 3 g): 94.6%
Normal rate of white blood cells ([5]; Group 3 g): 91.9%
Rate of constipation ([5]; Group 3 g): 2.7%
Rate of loose stool ([5]; Group 3 g): 0.0%
Normal rate of ALT ([5]; Group 9 g): 90.0%
Normal rate of AST ([5]; Group 9 g): 90.0%
Normal rate of red blood cells ([5]; Group 9 g): 90.0%
Normal rate of serum creatinine ([5]; Group 9 g): 100.0%
Normal rate of urine protein ([5]; Group 9 g): 100.0%
Normal rate of white blood cells ([5]; Group 9 g): 100.0%
Rate of constipation ([5]; Group 9 g): 0.0%
Rate of loose stool ([5]; Group 9 g): 0.0%
Normal rate of ALT ([5]; Group 18 g): 100.0%
Normal rate of AST ([5]; Group 18 g): 100.0%
Normal rate of red blood cells ([5]; Group 18 g): 80.0%
Normal rate of serum creatinine ([5]; Group 18 g): 100.0%
Normal rate of urine protein ([5]; Group 18 g): 100.0%
Normal rate of white blood cells ([5]; Group 18 g): 80.0%
Rate of constipation ([5]; Group 18 g): 0.0%
Rate of loose stool ([5]; Group 18 g): 0.0%

COc1ccc(-c2cc(=O)c3c(O)cc(O[C@@H]4O[C@H](CO[C@@H]5O[C@@H](C)[C@H](O)[C@@H](O)[C@H]5O)[C@@H](O)[C@H](O)[C@H]4O)cc3o2)cc1O [diosmin, reference compound]
BMI [1, 6]: 7.60 ± 0.39 kg/m^2
BMI of animals compared with the model group (in words) ([1]; obese model rats): no significant difference
